Bridge positions count the residues as written; N and C are the ends. Ends that are not written are not given here.
Tested on: IL-1β/IL-1R1 dependent signaling
Assay: HEK-Blue IL-33/IL-1β reporter cells (SEAP) stimulated with IL-1β
Type: cell-based
Conditions: FIG. 15; for IL-1β/IL-1R1 dependent signaling (NF-κB and AP-1): HEK Blue reporter cells stimulated with IL-1
From the text: HEK-Blue™ IL-33/IL-1β cells were purchased from InvivoGen. These cells were transfected with a reporter gene, secreted embryonic alkaline phosphatase (SEAP), under the control of the IFN-β minimal promoter fused to five NF-κB and five AP-1 binding sites. In the presence of bioactive IL1β and/or IL33, HEK-Blue cells activate the NF-κB and AP-1 pathways triggering the production of SEAP. SEAP activity in cell supernatant is quantified using a colorimetric enzyme assay (QUANTI-Blue™, InvivoGen).
HEK Blue IL-33/IL-1β Reporter Cells. HEK-Blue™ IL-33/IL-1β Cells were purchased from InvivoGen. These cells were generated by transfection with a reporter gene, secreted embryonic alkaline phosphatase (SEAP), under the control of the IFN-β minimal promoter fused to five NF-κB and five AP-1 binding sites. In the presence of bioactive IL-1β and/or IL-33, HEK-Blue cells activated the NF-κB and AP-1 pathways triggering the production of SEAP. SEAP activity in cell supernatant was quantified using a colorimetric enzyme assay (QUANTI-Blue™, InvivoGen). HEK Blue cells were grown in DMEM, 4.5 g/l glucose, 2 mM L-Glutamine, 10% (v/v) heat-inactivated fetal bovine serum (30 min at 56° C.). After two passages, cells were exposed to selective medium (DMEM, 4.5 g/l glucose, 2 mM L-Glutamine, 10% heat-inactivated FBS (v/v) with of blasticidin (30 μg/ml), hygromycin B ([…]), and Zeocin™ ([…])). Cells were then plate in 96 well plates (10,000 cell per well) and stimulated with IL-1β (1 ng) and IL-33 (5 ng) in presence or absence of inhibitors.

Substance	IL-1β/IL-1R1 dependent signaling (NF-κB and AP-1)	signaling activity of cytokine specificity controls (cytokine used instead of IL-1 as stimulus)
TINQSISHSRTQNQTRTQILS (Synthetic construct RedAgg) [Arg286 peptide with glutamic acid replaced by glutamine to reduce aggregation]	inhibit IL-1β/IL-1R1 dependent signaling	
TINESCSHSRTEDETRTQCLS [Cycl]	inhibit IL-1β/IL-1R1 dependent signaling	
TINESISHSRTEDETRTQILS (Synthetic construct Arg286)	inhibit IL-1β/IL-1R1 dependent signaling	
TNFα [reference compound]		no significant signaling activity
TINQSCSHSRTQNQTRTQCLS (disulfide 6-19 (inferred)) [RedAgg_Cycl, Arg286 peptide with glutamine replacements and two cysteines forming a disulfide bridge]	inhibit IL-1β/IL-1R1 dependent signaling	
